# Counter-ions that a name gives are not always drawn.
# What was measured:
# [1] = molecular target: CB1-receptor (UniProt P20272); test: binding of the pyrazoline compounds to CB1-receptors (Pharmacological Methods, Part I); set-up: IC50; species or system human or rat; conditions: radioligand [3H]-CP55940, read-out: IC50
# Protocol: (§1) I. In-vitro Determination of Affinity to CB1/CB2-Receptors
# (§2) The in-vitro determination of the affinity of the inventive 4-substituted pyrazoline compounds to CB1/CB2-Rezeptors is carried out as described in the publication of Ruth A. Ross, Heather C. Brockie et al., “Agonist-inverse agonist characterisation at CB1 and CB2 cannabinoid receptors of L-759633, L759656 and AM630”, British Journal of Pharmacology, 126, 665-672, (1999), whereby the transfected human CB1 and CB2 receptors of Receptor Biology, Inc. are used. The radioligand used for both receptors is [^3H]-CP55940. The respective parts of the description is hereby incorporated by reference and forms part of the present disclosure.
# (§3) Rat Cerebellum CB1 Binding
# (§4) Binding affinity to CB1 receptor was evaluated according to a modification of the method described by Govaerts et al., Eur J Pharmac Sci 23, 233-243 (2004). The respective parts of the description is hereby incorporated by reference and forms part of the present disclosure.
# (§5) Briefly, cerebellum from male wistar rats (250-300 g) were carefully dissected on ice and homogenates were prepared with Potter-Helveheim in a cold 50 mM Tris-HCl solution containing 5 mM MgCl2, 1 mM EDTA and 0.25 M sucrose, pH 7.4. The suspension was centrifuged at […] for 5 minutes. The supernatants were collected and centrifuged 50,000×g for 15 minutes. The resulting pellets were then resuspended in Tris-HCl buffer without sucrose, homogenized and incubated for 15 min at 37° C. in an orbital shaker bath and centrifuged again at 50,000×g for 15 min. Pellets were weighted, resuspended in Tris-HCl buffer without sucrose, homogenized with Ultraturrax at 13,500 rpm for 3×5 seconds and alicuoted in 0.9 ml volumes in Eppendorf tubes. Alicuotes were centrifuged at 20,800×g for 5 minutes, supernatants discarded and pellets were frozen at −80° C. until use. Total protein concentration was determined using the Bio-Rad Lowry method based kit. Competitive binding experiments were performed in presence of 1 nM [^3H]-CP 55,940 in siliconized glass tubes containing 100 μg protein/tube resuspended in 1 ml final volume of 50 mM Tris-HCl, 5 mM MgCl2, 1 mM EDTA, 0.5% (w/v) bovine serum albumin, pH 7.4. Compounds were present at various concentrations and the non specific binding was determined in the presence of 10 μM HU-210. After 1 hour incubation at 30° C., the suspension was rapidly filtered through 0.5% PEI pre-treated GF/B fiber filters on a 96-well harvester and washed 3 times with 3 ml ice-cold binding buffer without bovine serum albumin. Radioactivity on filters was measured with Wallac Winspectral 1414 counter by liquid scintillation in 6 ml Ecoscint H (National Diagnostics, U.K.). Assays were made in triplicates.
# (§6) Binding data were analyzed by non-linear regression with the software GraphPad Prism Version 3.03.
# (§7) The binding of the pyrazoline compounds of general formula I to CB1-receptors was determined according to the method described in the section Pharmacological Methods, Part I.
# [2] = molecular target: CB1-receptor (UniProt P20272); test: as above; set-up: other: 10^−7 M; other: 10^−8 M; species or system human or rat
# Protocol: as §1, §2, §3, §4, §5, §6, §7
Compound,IC50 [1],Inhibition ([2]; 10^−7 M),"Inhibition ([2]; 10^−8 M, in %)"
"C[C@H]1C(C(=O)NN2CC3CCCC3C2)=NN(c2ccc(Cl)cc2Cl)[C@H]1c1ccc(Cl)cc1 (relative stereo) [Example 108, cis-5-(4-Chlorophenyl)-1-(2,4-dichlorophenyl)-4-methyl-4,5-dihydro-1H-pyrazole-3-carboxylic acid (hexahydrocyclopenta[c]pyrrol-2-yl)-amide hydrochloride]",31.6 nM,,
"C[C@H]1C(C(=O)NN2CCCCCC2)=NN(c2ccc(Cl)cc2Cl)[C@H]1c1ccc(Cl)cc1.Cl (relative stereo) [Example 96, cis-5-(4-Chlorophenyl)-1-(2,4-dichlorophenyl)-4-methyl-4,5-dihydro-1H-pyrazole-3-carboxylic acid azepan-1-ylamide hydrochloride]",7.9 nM,80%,65
"C[C@H]1C(C(=O)NN2CC3CCCC3C2)=NN(c2ccc(Cl)cc2Cl)[C@H]1c1ccc(Br)cc1 (relative stereo) [Example 213, cis-5-(4-bromophenyl)-1-(2,4-dichlorophenyl)-N-(hexahydrocyclopenta[c]pyrrol-2(1H)-yl)-4-methyl-4,5-dihydro-1H-pyrazole-3-carboxamide hydrochloride]",53 nM,,
"CC1Cc2ccccc2N1NC(=O)C1=NN(c2ccc(Cl)cc2Cl)[C@@H](c2ccc(Cl)cc2)[C@H]1C (relative stereo) [Example 113, cis-5-(4-chlorophenyl)-1-(2,4-dichlorophenyl)-4-methyl-N-(2-methylindolin-1-yl)-4,5-dihydro-1H-pyrazole-3-carboxamide]",128 nM,55.5%,24.7
"C[C@@H]1C(C(=O)NN2CCCCC2)=NN(c2ccc(Cl)cc2Cl)[C@@H]1c1ccc(Cl)cc1 (relative stereo) [Example 434, cis-5-(4-chlorophenyl)-1-(2,4-dichlorophenyl)-4-methyl-N-(piperidin-1-yl)-4,5-dihydro-1H-pyrazole-3-carboxamide]",89 nM,,
"C[C@H]1C(C(=S)NN2CCCCC2)=NN(c2ccc(Cl)cc2Cl)[C@H]1c1ccc(Cl)cc1 (relative stereo) [Example 379, cis-5-(4-chlorophenyl)-1-(2,4-dichlorophenyl)-4-methyl-N-(piperidin-1-yl)-4,5-dihydro-1H-pyrazole-3-carbothioamide hydrochloride]",112 nM,74.5%,27.0
"CC1CCCCC1NC(=O)C1=NN(c2ccc(Cl)cc2Cl)[C@H](c2ccc(Cl)cc2)[C@@H]1C (relative stereo) [Example 424, cis-5-(4-chlorophenyl)-1-(2,4-dichlorophenyl)-4-methyl-N-(2-methylcyclohexyl)-4,5-dihydro-1H-pyrazole-3-carboxamide]",29.7 nM,65.7%,39.3
"COc1ccc([C@@H]2[C@H](C)C(C(=O)NN3CCc4ccccc43)=NN2c2ccc(Cl)cc2Cl)cc1 (relative stereo) [Example 279, cis-1-(2,4-dichlorophenyl)-N-(indolin-1-yl)-5-(4-methoxyphenyl)-4-methyl-4,5-dihydro-1H-pyrazole-3-carboxamide]",19 nM,62.4%,14.7
"C[C@@H]1C(C(=O)NN2CCCCC2)=NN(c2ccc(Cl)cc2Cl)[C@H]1c1ccc(Cl)cc1 (relative stereo) [Example 431, trans-5-(4-chlorophenyl)-1-(2,4-dichlorophenyl)-4-methyl-N-(piperidin-1-yl)-4,5-dihydro-1H-pyrazole-3-carboxamide]",79 nM,,
"COc1ccc([C@H]2[C@@H](C)C(C(=O)NN3CCCCCC3)=NN2c2ccc(Cl)cc2Cl)cc1.Cl (relative stereo) [Example 271, cis-N-(azepan-1-yl)-1-(2,4-dichlorophenyl)-5-(4-methoxyphenyl)-4-methyl-4,5-dihydro-1H-pyrazole-3-carboxamide hydrochloride]",61 nM,73.5%,30.6
"C[C@@H]1C(C(=O)NN2CCCCC2)=NN(c2ccc(Cl)cc2Cl)[C@@H]1c1ccc(Cl)s1 (relative stereo) [Example 427, cis-5-(5-chlorothiophen-2-yl)-1-(2,4-dichlorophenyl)-4-methyl-N-(piperidin-1-yl)-4,5-dihydro-1H-pyrazole-3-carboxamide hydrochloride]",160 nM,,
"C[C@H]1C(C(=O)N2CCN(C3CCCCC3)CC2)=NN(c2ccc(Cl)cc2Cl)[C@H]1c1ccc(Cl)cc1 (relative stereo) [Example 5, cis-[5-(4-Chloro-phenyl)-1-(2,4-dichloro-phenyl)-4-methyl-4,5-dihydro-1H-pyrazol-3-yl]-(4-cyclohexyl-piperazin-1-yl)-methanone]",200 nM,,
"C[C@H]1C(C(=O)NN2CCCCC2)=NN(c2ccc(Cl)cc2Cl)[C@@H]1c1ccc(Br)s1 (relative stereo) [Example 71, trans-5-(5-Bromo-thiophen-2-yl)-1-(2,4-dichloro-phenyl)-4-methyl-4,5-dihydro-1H-pyrazole-3-carboxylic acid piperidin-1-ylamide]",> 1000 nM,,
"C[C@H]1C(C(=O)NN2CCCCC2)=NN(c2ccc(Cl)cc2Cl)[C@H]1c1cc(Br)cs1 (relative stereo) [Example 75, cis-5-(4-Bromo-thiophen-2-yl)-1-(2,4-dichloro-phenyl)-4-methyl-4,5-dihydro-1H-pyrazole-3-carboxylic acid piperidin-1-ylamide]",180 nM,,
"C[C@@H]1C(C(=O)NN2CCCCC2)=NN(c2ccc(Cl)cc2Cl)[C@H]1c1ccc(Cl)s1 (relative stereo) [Example 426, trans-5-(5-chlorothiophen-2-yl)-1-(2,4-dichlorophenyl)-4-methyl-N-(piperidin-1-yl)-4,5-dihydro-1H-pyrazole-3-carboxamide hydrochloride]",280 nM,,
"C[C@H]1C(C(=O)NN2CCc3ccccc32)=NN(c2ccc(Cl)cc2Cl)[C@H]1c1ccc(Cl)cc1 (relative stereo) [Example 15, cis-5-(4-Chloro-phenyl)-1-(2,4-dichloro-phenyl)-4-methyl-4,5-dihydro-1H-pyrazole-3-carboxylic acid (2,3-dihydro-indol-1-yl)-amide]",100 nM,,
"CC1CCN(NC(=O)C2=NN(c3ccc(Cl)cc3Cl)[C@@H](c3ccc(Cl)cc3)[C@H]2C)CC1 (relative stereo) [Example 9, cis-5-(4-Chloro-phenyl)-1-(2,4-dichloro-phenyl)-4-methyl-4,5-dihydro-1H-pyrazole-3-carboxylic acid (4-methyl-piperidin-1-yl)-amide]",77.3 nM,,
"C[C@@H]1C(C(=O)NN2CCN(C3CCCC3)CC2)=NN(c2ccc(Cl)cc2Cl)[C@@H]1c1ccc(Cl)cc1.Cl (relative stereo) [Example 100, cis-5-(4-chlorophenyl)-N-(4-cyclopentylpiperazin-1-yl)-1-(2,4-dichlorophenyl)-4-methyl-4,5-dihydro-1H-pyrazole-3-carboxamide hydrochloride]",,32.6%,5.4
"C[C@@H]1C(C(=O)N[C@H]2CCCC[C@@H]2OCc2ccccc2)=NN(c2ccc(Cl)cc2Cl)[C@@H]1c1ccc(Cl)cc1 (mixture of isomers) [Example 409, (+)-cis-N-((1S,2S)-2-(benzyloxy)cyclohexyl)-5-(4-chlorophenyl)-1-(2,4-dichlorophenyl)-4-methyl-4,5-dihydro-1H-pyrazole-3-carboxamide]",,−5.8%,−37
"COc1ccc([C@@H]2[C@H](C)C(C(=O)N[C@H]3CCCC[C@@H]3O)=NN2c2ccc(Cl)cc2Cl)cc1 (mixture of isomers) [Example 282, (−)-cis-1-(2,4-dichlorophenyl)-N-((1S,2S)-2-hydroxycyclohexyl)-5-(4-methoxyphenyl)-4-methyl-4,5-dihydro-1H-pyrazole-3-carboxamide]",,44.3%,9.6

# From patent publication US20070073056A1, “4-Substituted Pyrazoline Compounds, their Preparation and Use as Medicaments” (LABORATORIOS DEL DR. ESTEVE, S.A., priority 2005, published 2007)
